Laboratory results reported in patent publication US7629503B2, “Δ-4 desaturases from Euglena gracilis, expressing plants, and oils containing PUFA” (BASF Plant Science GmbH, priority 2003, dated 2009).

Test system: Euglena gracilis Δ4-desaturase
Experiment: Substrate specificity: feeding fatty acids to yeast expressing the Δ-4-desaturase (pYES-EGD4-2), fatty acid analysis by GC
Assay type: cell-based
Details: transformed yeast (saccharomyces strain SC334, pYES-EGD4-2), 100 μM fatty acid substrate (67 μM for 16:1 Δ7), 2% galactose induction, 15° C. for 4 days
Method: Yeasts transformed with the plasmid pYES-EGD4-2 as in Example 4 were analyzed in the following way:
The yeast cells were grown in 1 ml of minimal medium with 0.2% raffinose for two days and then transferred into 5 ml of the same medium. This culture was grown at 30° C. for 6 h until the OD600 was 0.05. Then 100 μM of the fatty acid substrates (67 μM for 16:1 Δ7) were added, and the expression of the Δ-4-desaturase was induced by adding 2% galactose. The cells were then incubated at 15° C. for 4 days, harvested, washed with 100 mM NaHCO3 and employed for the fatty acid analysis by GC.
The substrate specificities were found by feeding the transformed yeast strains with different fatty acids (Tab. 1). Conversion of the fed fatty acids to their Δ4-desaturated products was then determined.

Row | SMILES | Conversion (in %) of the fed fatty acid to its Δ4-desaturated product
1 | CCCCCCCCCCCCCCCC(=O)O [16:0] | Not detectable
2 | CCCCCCCCC=CCCCCCC(=O)O [16:1 Δ7] | 7.4 (±0.8) %
3 | CCCCCC/C=C\CCCCCCCC(=O)O [16:1 Δ9] | Not detectable
4 | CC/C=C\C/C=C\C/C=C\CCCCCC(=O)O [16:3 Δ7, 10, 13] | 21.4 (±3.3) %
5 | CCCCCCCCCCCCCCCCCC(=O)O [18:0] | Not detectable
6 | CCCCCCCC/C=C\CCCCCCCC(=O)O [18:1 Δ9] | Not detectable
7 | CCCCC/C=C\C/C=C\CCCCCCCC(=O)O [18:2 Δ9, 12] | Not detectable
8 | CCCCC/C=C\C/C=C\C/C=C\CCCCC(=O)O [18:3 Δ6, 9, 12] | Not detectable
9 | CCCCC/C=C\C/C=C\C/C=C\CCCCCCC(=O)O [20:3 Δ8, 11, 14] | Not detectable
10 | CCCCC/C=C\C/C=C\C/C=C\C/C=C\CCCCCC(=O)O [22:4 Δ7, 10, 13, 16] | 28.7 (±2.5) %
11 | CC/C=C\C/C=C\C/C=C\C/C=C\C/C=C\CCCCCC(=O)O [22:5 Δ7, 10, 13, 16, 19, docosapentaenoic acid] | 29.7 (±2.8) %
